The NIST ThermoML archive (doi:10.1021/je060271a)
Values joined by “and” are separate entries in the source; they are usually repeats but may differ in a detail not shown here. Equal entries are not always repeated. ± gives the expanded uncertainty stated by the source.

Conditions: Liquid, Vibrating tube method

CCCCC(=O)OCC(COC(=O)CCCC)(COC(=O)CCCC)COC(=O)CCCC [pentaerythritol tetrapentanoate]
Conditions | mass density
323.15 K, 31189 kPa | 1015 ± 1.2 kg/m3
323.15 K, 31223 kPa | 1015.1 ± 1.2 kg/m3
323.15 K, 31256 kPa | 1015.1 ± 1.2 kg/m3
323.15 K, 31290 kPa | 1015.1 ± 1.2 kg/m3
323.15 K, 31330 kPa | 1015.1 ± 1.2 kg/m3
323.15 K, 31363 kPa | 1015 ± 1.2 kg/m3
323.15 K, 31397 kPa | 1015.2 ± 1.2 kg/m3
323.15 K, 31438 kPa | 1015.2 ± 1.2 kg/m3
323.15 K, 31473 kPa | 1015.2 ± 1.2 kg/m3
323.15 K, 31507 kPa | 1015.2 ± 1.2 kg/m3
323.15 K, 31540 kPa | 1015.3 ± 1.2 kg/m3
323.15 K, 31581 kPa | 1015.3 ± 1.2 kg/m3
323.15 K, 31615 kPa | 1015.4 ± 1.2 kg/m3
323.15 K, 31649 kPa | 1015.3 ± 1.2 kg/m3
323.15 K, 31689 kPa | 1015.3 ± 1.2 kg/m3
323.15 K, 31724 kPa | 1015.3 ± 1.2 kg/m3
323.15 K, 31758 kPa | 1015.3 ± 1.2 kg/m3
323.15 K, 31794 kPa | 1015.4 ± 1.2 kg/m3
323.15 K, 31834 kPa | 1015.5 ± 1.2 kg/m3
323.15 K, 31869 kPa | 1015.4 ± 1.2 kg/m3
323.15 K, 31914 kPa | 1015.4 ± 1.2 kg/m3
323.15 K, 31941 kPa | 1015.6 ± 1.2 kg/m3
323.15 K, 31982 kPa | 1015.4 ± 1.2 kg/m3
323.15 K, 32017 kPa | 1015.6 ± 1.2 kg/m3
323.15 K, 32052 kPa | 1015.6 ± 1.2 kg/m3
323.15 K, 32093 kPa | 1015.7 ± 1.2 kg/m3
323.15 K, 32128 kPa | 1015.6 ± 1.2 kg/m3
323.15 K, 32170 kPa | 1015.7 ± 1.2 kg/m3
323.15 K, 32206 kPa | 1015.7 ± 1.2 kg/m3
323.15 K, 32240 kPa | 1015.6 ± 1.2 kg/m3
323.15 K, 32283 kPa | 1015.7 ± 1.2 kg/m3
323.15 K, 32318 kPa | 1015.7 ± 1.2 kg/m3
323.15 K, 32354 kPa | 1015.8 ± 1.2 kg/m3
323.15 K, 32398 kPa | 1015.8 ± 1.2 kg/m3
323.15 K, 32434 kPa | 1015.8 ± 1.2 kg/m3
323.15 K, 32470 kPa | 1015.8 ± 1.2 kg/m3
323.15 K, 32513 kPa | 1015.7 ± 1.2 kg/m3
323.15 K, 32550 kPa | 1015.9 ± 1.2 kg/m3
323.15 K, 32586 kPa | 1015.9 ± 1.2 kg/m3
323.15 K, 32623 kPa | 1015.9 ± 1.2 kg/m3
323.15 K, 32666 kPa | 1016 ± 1.2 kg/m3
323.15 K, 32701 kPa | 1016 ± 1.2 kg/m3
323.15 K, 32745 kPa | 1015.9 ± 1.2 kg/m3
323.15 K, 32782 kPa | 1016.1 ± 1.2 kg/m3
323.15 K, 32820 kPa | 1016 ± 1.2 kg/m3
323.15 K, 32864 kPa | 1016.1 ± 1.2 kg/m3
323.15 K, 32902 kPa | 1016 ± 1.2 kg/m3
323.15 K, 32939 kPa | 1016.1 ± 1.2 kg/m3
323.15 K, 32977 kPa | 1016.1 ± 1.2 kg/m3
323.15 K, 33022 kPa | 1016.1 ± 1.2 kg/m3
323.15 K, 33058 kPa | 1016.2 ± 1.2 kg/m3
323.15 K, 33096 kPa | 1016.1 ± 1.2 kg/m3
323.15 K, 33141 kPa | 1016.2 ± 1.2 kg/m3
323.15 K, 33179 kPa | 1016.3 ± 1.2 kg/m3
323.15 K, 33224 kPa | 1016.3 ± 1.2 kg/m3
323.15 K, 33262 kPa | 1016.2 ± 1.2 kg/m3
323.15 K, 33300 kPa | 1016.2 ± 1.2 kg/m3
323.15 K, 33338 kPa | 1016.3 ± 1.2 kg/m3
323.15 K, 33384 kPa | 1016.4 ± 1.2 kg/m3
323.15 K, 33423 kPa | 1016.4 ± 1.2 kg/m3
323.15 K, 33462 kPa | 1016.3 ± 1.2 kg/m3
323.15 K, 33508 kPa | 1016.5 ± 1.2 kg/m3
323.15 K, 33546 kPa | 1016.4 ± 1.2 kg/m3
323.15 K, 33593 kPa | 1016.5 ± 1.2 kg/m3
323.15 K, 33633 kPa | 1016.5 ± 1.2 kg/m3
323.15 K, 33672 kPa | 1016.4 ± 1.2 kg/m3
323.15 K, 33712 kPa | 1016.4 ± 1.2 kg/m3
323.15 K, 33760 kPa | 1016.6 ± 1.2 kg/m3
323.15 K, 33800 kPa | 1016.5 ± 1.2 kg/m3
323.15 K, 33841 kPa | 1016.5 ± 1.2 kg/m3
323.15 K, 33890 kPa | 1016.6 ± 1.2 kg/m3
323.15 K, 33934 kPa | 1016.6 ± 1.2 kg/m3
323.15 K, 33978 kPa | 1016.7 ± 1.2 kg/m3
323.15 K, 34031 kPa | 1016.8 ± 1.2 kg/m3
323.15 K, 34078 kPa | 1016.7 ± 1.2 kg/m3
323.15 K, 34125 kPa | 1016.7 ± 1.2 kg/m3
323.15 K, 34165 kPa | 1016.8 ± 1.2 kg/m3
323.15 K, 34193 kPa | 1016.8 ± 1.2 kg/m3
323.15 K, 34215 kPa | 1016.8 ± 1.2 kg/m3
323.15 K, 34242 kPa | 1016.9 ± 1.2 kg/m3
323.15 K, 34266 kPa | 1016.9 ± 1.2 kg/m3
323.15 K, 34294 kPa | 1016.8 ± 1.2 kg/m3
323.15 K, 34311 kPa | 1016.8 ± 1.2 kg/m3
323.15 K, 34334 kPa | 1016.9 ± 1.2 kg/m3
323.15 K, 34359 kPa | 1017 ± 1.2 kg/m3
323.15 K, 34383 kPa | 1016.9 ± 1.2 kg/m3
323.15 K, 34414 kPa | 1017 ± 1.2 kg/m3
323.15 K, 34441 kPa | 1016.9 ± 1.2 kg/m3
323.15 K, 34467 kPa | 1016.9 ± 1.2 kg/m3
323.15 K, 34492 kPa | 1017 ± 1.2 kg/m3
323.15 K, 34493 kPa | 1017.1 ± 1.2 kg/m3
323.15 K, 34495 kPa | 1017 ± 1.2 kg/m3
323.15 K, 34498 kPa | 1017 ± 1.2 kg/m3
323.15 K, 34500 kPa | 1017.1 ± 1.2 kg/m3
323.15 K, 34502 kPa | 1017.1 ± 1.2 kg/m3
323.15 K, 34504 kPa | 1017.1 ± 1.2 kg/m3
323.15 K, 34507 kPa | 1017.1 ± 1.2 kg/m3
323.15 K, 34510 kPa | 1017 ± 1.2 kg/m3
343.14 K, 4331.4 kPa | 981.8 ± 1.2 kg/m3
343.14 K, 4369.7 kPa | 981.9 ± 1.2 kg/m3
343.14 K, 4403.1 kPa | 981.9 ± 1.2 kg/m3
343.14 K, 4438.3 kPa | 981.9 ± 1.2 kg/m3
343.14 K, 4480.3 kPa | 982 ± 1.2 kg/m3
343.14 K, 4516.3 kPa | 982 ± 1.2 kg/m3
343.14 K, 4553 kPa | 982.1 ± 1.2 kg/m3
343.14 K, 4648.1 kPa | 982.1 ± 1.2 kg/m3
343.14 K, 4649.8 kPa | 982.1 ± 1.2 kg/m3
343.14 K, 4651.7 kPa | 982.2 ± 1.2 kg/m3
343.14 K, 4656 kPa | 982.2 ± 1.2 kg/m3
343.14 K, 4659.5 kPa | 982 ± 1.2 kg/m3
343.14 K, 4659.7 kPa | 982.3 ± 1.2 kg/m3 and 982.2 ± 1.2 kg/m3
343.14 K, 4661.6 kPa | 982.1 ± 1.2 kg/m3
343.14 K, 4661.9 kPa | 982 ± 1.2 kg/m3
343.14 K, 4662.1 kPa | 982.1 ± 1.2 kg/m3 and 982 ± 1.2 kg/m3
343.14 K, 4662.3 kPa | 982.1 ± 1.2 kg/m3
343.14 K, 4662.4 kPa | 982.2 ± 1.2 kg/m3
343.14 K, 4662.6 kPa | 982.1 ± 1.2 kg/m3
343.14 K, 4662.8 kPa | 982.1 ± 1.2 kg/m3
343.14 K, 4663.1 kPa | 982.1 ± 1.2 kg/m3
343.14 K, 4671.9 kPa | 982.1 ± 1.2 kg/m3
343.14 K, 4688.2 kPa | 982 ± 1.2 kg/m3
343.14 K, 4712.1 kPa | 982.2 ± 1.2 kg/m3
343.14 K, 4732.7 kPa | 982.3 ± 1.2 kg/m3
343.14 K, 4774.6 kPa | 982.2 ± 1.2 kg/m3
343.14 K, 4799.7 kPa | 982.2 ± 1.2 kg/m3
343.14 K, 4821 kPa | 982.3 ± 1.2 kg/m3
343.14 K, 4842.3 kPa | 982.4 ± 1.2 kg/m3
343.14 K, 4868.4 kPa | 982.4 ± 1.2 kg/m3
343.14 K, 4886.2 kPa | 982.3 ± 1.2 kg/m3
343.14 K, 4912.7 kPa | 982.3 ± 1.2 kg/m3
343.14 K, 21139 kPa | 994 ± 1.2 kg/m3
343.14 K, 21166 kPa | 994 ± 1.2 kg/m3
343.14 K, 21194 kPa | 994.3 ± 1.2 kg/m3
343.14 K, 21221 kPa | 994 ± 1.2 kg/m3
343.14 K, 21398 kPa | 994.3 ± 1.2 kg/m3
343.14 K, 21431 kPa | 994.3 ± 1.2 kg/m3
343.14 K, 21460 kPa | 994.4 ± 1.2 kg/m3
343.14 K, 21488 kPa | 994.4 ± 1.2 kg/m3
343.14 K, 21522 kPa | 994.5 ± 1.2 kg/m3
343.14 K, 21550 kPa | 994.3 ± 1.2 kg/m3
343.14 K, 21578 kPa | 994.5 ± 1.2 kg/m3
343.14 K, 21611 kPa | 994.5 ± 1.2 kg/m3
343.14 K, 21640 kPa | 994.4 ± 1.2 kg/m3
343.14 K, 21669 kPa | 994.4 ± 1.2 kg/m3
343.14 K, 21702 kPa | 994.5 ± 1.2 kg/m3
343.14 K, 21732 kPa | 994.4 ± 1.2 kg/m3
343.14 K, 21760 kPa | 994.6 ± 1.2 kg/m3
343.14 K, 21795 kPa | 994.6 ± 1.2 kg/m3
343.14 K, 21825 kPa | 994.6 ± 1.2 kg/m3
343.14 K, 21856 kPa | 994.6 ± 1.2 kg/m3
343.14 K, 21885 kPa | 994.7 ± 1.2 kg/m3
343.14 K, 21920 kPa | 994.7 ± 1.2 kg/m3
343.14 K, 21949 kPa | 994.6 ± 1.2 kg/m3
343.14 K, 21979 kPa | 994.6 ± 1.2 kg/m3
343.14 K, 22008 kPa | 994.7 ± 1.2 kg/m3
343.14 K, 22044 kPa | 994.8 ± 1.2 kg/m3
343.14 K, 22073 kPa | 994.7 ± 1.2 kg/m3
343.14 K, 22109 kPa | 994.9 ± 1.2 kg/m3
343.14 K, 22139 kPa | 994.8 ± 1.2 kg/m3
343.14 K, 22169 kPa | 994.8 ± 1.2 kg/m3
